System: Crotalus atrox venom
Assay: Thrombelastography of human plasma pretreated with iron and/or CO, then incubated with Crotalus atrox venom (Example I)
Type: biochemical
Details: 0.5 μg/ml venom, 5 min incubation
Description: Two-hundred mg of lyophilized, pooled venom was obtained from four western diamondback rattlesnakes (Crotalus atrox) for experimentation. Venom was reconstituted in calcium-free phosphate buffered saline (PBS, Sigma-Aldrich, Saint Louis, Mo., USA) at a concentration of 20 mg/ml, aliquoted, and then stored at −80° C. until experimentation at the University of Arizona. Pooled human normal plasma (George King Bio-Medical, Overland Park, Kans., USA) anticoagulated with sodium citrate was rapidly thawed at 37° C. and used for experimentation. To assess the effects of pretreatment of fibrinogen with iron, CO, or both, 1% additions of PBS, ferric chloride (FeCl3, 99.9% pure, Sigma-Aldrich, Saint Louis, Mo., USA) in PBS, or CORM-2 (tricarbonyldichlororuthenium (II) dimer, a CO releasing molecule, Sigma-Aldrich, Saint Louis, Mo., USA) dissolved in dimethyl sulfoxide (DMSO, Sigma-Aldrich, Saint Louis, Mo., USA). The final concentrations of FeCl3 and CORM-2 were 10 μM and 100 μM, respectively; these concentrations are associated with nearly maximal augmenting effects on coagulation kinetics (see, Nielsen V G, et al., Blood Coagul Fibrinolysis 2014; 25:695-702). Plasma was exposed to these various agents for at least 5 min prior to incubations with venom.
The final volume for all subsequently described plasma sample mixtures was 359.4 μl. Sample composition consisted of 326 μl of plasma; 10 μl of tissue factor reagent (0.1% final concentration in distilled water; Diagnostica Stago S.A.S., Asnieres sur Seine, France) and 3.4 μl of PBS or venom (final concentration 0.5 μg/ml). […] The aforementioned plasma and venom mixtures were placed in a disposable cup in a computer-controlled Thrombelastograph® hemostasis system (Model 5000, Haemoscope Corp., Niles, Ill., USA) and incubated for 5 or 20 min at 37° C., with addition of 20 μl of 200 mM CaCl2) as the last step to initiate clotting. Data were collected at 37° C. for 15 min after 5 min of incubation, whereas samples incubated with venom for 20 min had data collected for 30 min, given the prolonged onset of coagulation and diminished rate of thrombus formation. The following elastic modulus-based parameters previously described (see, Nielsen, et al., 2014, Blood Coagul. Fibrinolysis 25:695-702; Nielsen, et al., 2011, Blood Coagul. Fibrinolysis 22: 443-447); Nielsen V G, et al., Blood Coagul Fibrinolysis 2014; 25:845-850) were determined: time to maximum rate of thrombus generation (TMRTG): this is the time interval (min) observed prior to maximum speed of clot growth; maximum rate of thrombus generation (MRTG): this is the maximum velocity of clot growth observed (dynes/cm^2/sec); and total thrombus generation (TTG, dynes/cm^2), the final viscoelastic resistance observed after clot formation.
Data are presented as mean+SD. A commercially available statistical program was used for one-way analysis of variance followed by Holm-Sidak post hoc analyses (SigmaStat 3.1, Systat Software, Inc., San Jose, Calif., USA). Graphics depicting viscoelastic data were generated with a commercially available program (OrigenPro 7.5, OrigenLab Corporation, Northampton, Mass., USA; CorelDRAW12, Corel Corporation, Mountain View, Calif., USA).

[Cl][Fe]([Cl])[Cl] [iron, ferric chloride]
maximum rate of thrombus generation (MRTG), change on venom exposure (vs matched venom naïve samples): significantly decreased | maximum rate of thrombus generation (MRTG) (vs plasma without additions exposed to venom): significantly greater | time to maximum rate of thrombus generation (TMRTG) (vs samples without iron/CO additions or with CO addition alone): significantly smaller
